# Results as given in US10787446B2 (GENENTECH, INC., priority 2015, dated 2020).
# Structures can show the parent of a compound that is named as a salt.
# Target: T1, hNav1.7 and the β1 subunit (Homo sapiens, UniProt Q15858)
# T1 construct: expressed in transfected cells
# Experiment: Tritiated compound competitive binding to membranes from cells heterologously expressing hNav1.7 and the β1 subunit (LBA)
# Conditions: competition with 100 pM [3H]compound, 18 h, room temperature; IC50 by 4 parameter logistic model
# Method: Example 235 Tritiated Compound Binding to Membranes Isolated from Cells that Heterologously Express hNav1.7 and the β1 Subunit
# Preparation of membranes containing recombinantly expressed sodium channels: Frozen recombinant cell pellets were thawed on ice and diluted to 4 times the cell pellet weight with ice cold 50 mM Tris HCl, pH 7.4 buffer. The cell suspensions were homogenized on ice using a motorized glass dounce homogeniser. Homogenates were further diluted 8.4 times with ice cold 50 mM Tris HCl, pH 7.4 buffer and then centrifuged at 200×g at 4° C. for 15 min. The supernatants were collected and centrifuged at 10000×g at 4° C. for 50 min. The pellets were then re-suspended in 100 mM NaCl, 20 mM Tris HCl, pH 7.4 buffer containing 1% v/v protease inhibitors (Calbiochem) and re-homogenized on ice. The homogenized membranes were then processed through a syringe equipped with a 26 gauge needle. Protein concentrations were determined by Bradford Assay and the membranes were stored at −80° C.
# Radioligand Binding Studies:
# Saturation experiments. A competitive NaV1.7 inhibitor having a methyl group was tritiated. Three tritiums were incorporated in place of methyl hydrogens to generate [^3H]compound. Binding of this radioligand was performed in 5 mL borosilicate glass test tubes at room temperature. Binding was initiated by adding membranes to increasing concentrations of [^3H]compound in 100 mM NaCl, 20 mM Tris HCl, pH 7.4 buffer containing 0.01% w/v bovine serum albumin (BSA) for 18 h. […] After 18 h, the reactants were filtered through GF/C glass fiber filters presoaked in 0.5% w/v polyethylene imine. […] [^3H]compound bound to filters was quantified by liquid scintillation counting.
# Competitive Binding Experiments:
# Binding reactions were performed in 96-well polypropylene plates at room temperature for 18 h. In 360 μL, membranes were incubated with 100 pM [^3H]compound and increasing concentrations of Test Compound. […] Reactions were transferred and filtered through 96-well glass fiber/C filter plates presoaked with 0.5% polyethylene imine. The filtered reactions were washed 5 times with 200 μL ice cold buffer containing 0.25% BSA. Bound radioactivity was determined by liquid scintillation counting.
# Data Analysis: For saturation experiments, non-specific binding was subtracted from total binding to provide specific binding and these values were recalculated in terms of pmol ligand bound per mg protein. Saturation curves were constructed and dissociation constants were calculated using the single site ligand binding model: Beq=(Bmax*X)/(X+Kd), where Beq is the amount of ligand bound at equilibrium, Bmax is the maximum receptor density, Kd is the dissociation constant for the ligand, and X is the free ligand concentration. For competition studies percent inhibition was determined and IC50 values were calculated using a 4 parameter logistic model (% inhibition=(A+((B−A)/(1+((x/C)^D)))) using XLfit, where A and B are the maximal and minimum inhibition respectively, C is the IC50 concentration and D is the (Hill) slope.
# T1 sequence (Q15858 whole entry): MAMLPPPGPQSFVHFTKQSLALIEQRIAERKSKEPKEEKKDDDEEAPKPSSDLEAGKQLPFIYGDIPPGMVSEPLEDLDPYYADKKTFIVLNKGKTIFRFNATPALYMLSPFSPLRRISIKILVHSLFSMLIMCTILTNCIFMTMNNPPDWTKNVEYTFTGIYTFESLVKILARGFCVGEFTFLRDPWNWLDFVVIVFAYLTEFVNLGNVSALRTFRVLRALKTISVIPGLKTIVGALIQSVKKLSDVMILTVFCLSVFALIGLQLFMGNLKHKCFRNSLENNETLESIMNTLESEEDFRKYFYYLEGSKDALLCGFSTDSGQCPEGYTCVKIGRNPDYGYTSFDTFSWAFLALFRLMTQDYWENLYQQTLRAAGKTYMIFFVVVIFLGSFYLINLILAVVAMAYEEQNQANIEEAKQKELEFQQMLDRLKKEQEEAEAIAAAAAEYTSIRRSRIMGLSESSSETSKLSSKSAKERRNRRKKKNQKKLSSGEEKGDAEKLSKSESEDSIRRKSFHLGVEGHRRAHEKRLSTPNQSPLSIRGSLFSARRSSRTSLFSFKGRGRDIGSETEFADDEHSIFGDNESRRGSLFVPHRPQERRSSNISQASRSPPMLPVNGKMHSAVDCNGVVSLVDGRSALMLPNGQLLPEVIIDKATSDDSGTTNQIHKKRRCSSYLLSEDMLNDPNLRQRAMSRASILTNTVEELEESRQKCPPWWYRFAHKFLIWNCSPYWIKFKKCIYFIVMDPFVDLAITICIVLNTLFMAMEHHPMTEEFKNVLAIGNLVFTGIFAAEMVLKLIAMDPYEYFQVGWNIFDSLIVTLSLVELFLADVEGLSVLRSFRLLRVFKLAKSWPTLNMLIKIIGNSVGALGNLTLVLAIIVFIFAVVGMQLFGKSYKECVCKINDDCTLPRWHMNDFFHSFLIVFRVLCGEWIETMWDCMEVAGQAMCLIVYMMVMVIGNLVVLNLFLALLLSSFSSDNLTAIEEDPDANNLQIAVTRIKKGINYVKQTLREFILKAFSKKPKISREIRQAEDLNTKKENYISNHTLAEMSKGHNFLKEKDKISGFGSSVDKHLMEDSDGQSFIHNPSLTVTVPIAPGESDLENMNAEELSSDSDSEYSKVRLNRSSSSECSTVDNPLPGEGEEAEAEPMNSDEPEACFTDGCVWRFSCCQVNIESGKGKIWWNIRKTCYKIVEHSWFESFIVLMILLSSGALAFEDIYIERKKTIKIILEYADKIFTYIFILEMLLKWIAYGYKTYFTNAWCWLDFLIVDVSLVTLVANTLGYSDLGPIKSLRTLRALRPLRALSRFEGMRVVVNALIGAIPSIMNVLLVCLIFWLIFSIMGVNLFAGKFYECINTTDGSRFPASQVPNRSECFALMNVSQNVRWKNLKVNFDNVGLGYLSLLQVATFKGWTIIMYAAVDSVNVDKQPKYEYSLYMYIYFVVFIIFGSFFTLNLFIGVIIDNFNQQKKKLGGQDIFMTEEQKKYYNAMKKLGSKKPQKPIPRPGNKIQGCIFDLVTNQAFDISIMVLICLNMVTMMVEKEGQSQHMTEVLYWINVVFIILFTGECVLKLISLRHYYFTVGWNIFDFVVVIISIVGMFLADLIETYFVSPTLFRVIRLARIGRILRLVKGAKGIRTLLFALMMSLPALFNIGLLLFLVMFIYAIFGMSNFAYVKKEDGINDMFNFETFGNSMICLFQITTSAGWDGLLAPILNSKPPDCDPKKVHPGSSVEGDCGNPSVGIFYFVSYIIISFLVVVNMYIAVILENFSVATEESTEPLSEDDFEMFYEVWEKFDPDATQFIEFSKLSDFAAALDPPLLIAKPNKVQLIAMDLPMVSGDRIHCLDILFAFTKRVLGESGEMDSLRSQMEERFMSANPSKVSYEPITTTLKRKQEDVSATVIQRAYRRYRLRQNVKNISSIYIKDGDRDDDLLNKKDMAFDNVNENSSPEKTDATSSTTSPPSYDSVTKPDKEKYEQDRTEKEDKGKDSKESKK
# T1 sequence (Q07699 19-218 partner): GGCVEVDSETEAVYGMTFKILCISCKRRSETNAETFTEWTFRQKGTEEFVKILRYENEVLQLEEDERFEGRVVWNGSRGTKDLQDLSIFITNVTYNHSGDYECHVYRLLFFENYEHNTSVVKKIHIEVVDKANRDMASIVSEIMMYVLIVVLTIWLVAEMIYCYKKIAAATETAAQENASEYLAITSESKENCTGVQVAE
row,SMILES,Nav1.7 (LBA)
1,"O=S(=O)(Nc1ncns1)c1cc(Cl)c(CN2CCCC[C@H]2c2cccnc2)cc1F [Example 70, (S)-5-chloro-2-fluoro-4-((2-(pyridin-3-yl)piperidin-1-yl)methyl)-N-(1,2,4-thiadiazol-5-yl)benzenesulfonamide]",0.175 µM
2,"CC(C)(O)[C@@H]1CCN([C@@H]2CCOc3cc(S(=O)(=O)Nc4ncns4)ccc32)[C@H](c2ccc(F)cc2)C1 (single isomer, unassigned) [Example 137]",0.736 µM
3,"O=S(=O)(Nc1ncns1)c1ccc2c(c1)OCC[C@H]2N1CC[C@@](O)(C(F)(F)F)C[C@H]1c1ccc(F)cc1 [Example 167, (R)-4-((2S,4S)-2-(4-fluorophenyl)-4-hydroxy-4-(trifluoromethyl)piperidin-1-yl)-N-(1,2,4-thiadiazol-5-yl)chroman-7-sulfonamide]",3 µM
4,"CC(C)[C@@H]1CCN([C@@H]2CCOc3cc(S(=O)(=O)Nc4ncns4)ccc32)[C@H](c2ccccc2)C1 (single isomer, unassigned) [Example 128]",0.469 µM
5,"O=S(=O)(Nc1nccs1)c1cc2c(cc1F)[C@H](N1CC[C@@H](C(F)(F)F)C[C@H]1c1ccn[nH]1)CCO2 [Example 210, (R)-4-((2S,4R)-2-(1H-pyrazol-5-yl)-4-(trifluoromethyl)piperidin-1-yl)-6-fluoro-N-(thiazol-2-yl)chromane-7-sulfonamide]",0.0375 µM
6,"O=S(=O)(Nc1nccs1)c1cc2c(cc1F)[C@@H](N1CC[C@H](C(F)(F)F)C[C@@H]1c1ccc(F)cc1)CCO2 [Example 215, (S)-6-fluoro-4-((2R,4S)-2-(4-fluorophenyl)-4-(trifluoromethyl)piperidin-1-yl)-N-(thiazol-2-yl)chromane-7-sulfonamide]",0.633 µM
7,"CC(C)[C@H]1CCN([C@H]2CCOc3cc(S(=O)(=O)Nc4ncns4)ccc32)[C@@H](c2ccccc2)C1 (single isomer, unassigned) [Example 129]",0.0168 µM
8,"O=S(=O)(Nc1ncns1)c1ccc2c(c1)OCC[C@H]2N1CCCC[C@H]1c1cccnc1 (single isomer, unassigned) [Example 122]",0.0125 µM
9,"O=S(=O)(Nc1nccs1)c1cc2c(cc1F)[C@H](N1CC[C@@H](C(F)(F)F)C[C@H]1c1ccc(F)cc1)CCO2 [Example 214, (R)-6-fluoro-4-((2S,4R)-2-(4-fluorophenyl)-4-(trifluoromethyl)piperidin-1-yl)-N-(thiazol-2-yl)chromane-7-sulfonamide]",0.00144 µM
10,"CC[C@H]1CCCCN1[C@H](C)c1ccc(S(=O)(=O)Nc2ncns2)cc1Cl (racemic) [Example 58, (±)-3-chloro-4-((R)-1-((S)-2-ethylpiperidin-1-yl)ethyl)-N-(1,2,4-thiadiazol-5-yl)benzenesulfonamide]",5.3 µM
11,"CC1(C)CCN(Cc2cc(F)c(S(=O)(=O)Nc3ncns3)cc2F)[C@H](c2ccccc2)C1 (single isomer, unassigned) [Example 2]",0.288 µM
12,"N#CC1CCN([C@H]2CCOc3cc(S(=O)(=O)Nc4ncns4)ccc32)CC1 [Example 147, (S)-4-(4-cyanopiperidine-1-yl)-N-(1,2,4-thiadiazol-5-yl)chromane-7-sulfonamide]",5.36 µM
13,"O=S(=O)(Nc1ncns1)c1cc(F)c(CN2CC[C@H](F)C[C@@H]2c2ccccc2)cc1F (single isomer, unassigned) [Example 29]",0.157 µM
14,"O=S(=O)(Nc1ncns1)c1ccc(CN2CCCC[C@H]2c2ccccc2)c(Cl)c1 [Example 65, (S)-3-chloro-4-((2-phenylpiperidin-1-yl)methyl)-N-(1,2,4-thiadiazol-5-yl)benzenesulfonamide]",5.51 µM
15,"O=S(=O)(Nc1ncns1)c1ccc2c(c1)OCC[C@H]2N1CC[C@@H](OC(F)(F)F)C[C@H]1c1ccc(F)cc1 [Example 173, (R)-4-((2S,4R)-2-(4-fluorophenyl)-4-(trifluoromethoxy)piperidin-1-yl)-N-(1,2,4-thiadiazol-5-yl)chroman-7-sulfonamide]",0.000895 µM
16,"O=S(=O)(Nc1ncns1)c1ccc2c(c1)CC[C@@H]2N1CCCC[C@H]1c1ccccc1 (racemic) [Example 67, 1-(2-phenylpiperidin-1-yl)-N-(1,2,4-thiadiazol-5-yl)-2,3-dihydro-1H-indene-5-sulfonamide]",0.157 µM
17,"O=S(=O)(Nc1ncns1)c1ccc2c(c1)OCC[C@H]2N1CC[C@H](OC(F)(F)F)C[C@@H]1c1ccc(F)cc1 [Example 176, (R)-4-((2R,4S)-2-(4-fluorophenyl)-4-(trifluoromethoxy)piperidin-1-yl)-N-(1,2,4-thiadiazol-5-yl)chroman-7-sulfonamide]",0.0248 µM
18,"O=S(=O)(Nc1ncns1)c1cc(F)c(CN2CCC3(CC3)C[C@H]2c2ccccc2)cc1F [Example 110, (S)-2,5-difluoro-4-((5-phenyl-6-azaspiro[2.5]octan-6-yl)methyl)-N-(1,2,4-thiadiazol-5-yl)benzenesulfonamide]",0.337 µM
19,"Cn1cc([C@@H]2C[C@H](C(F)(F)F)CCN2[C@H]2CCOc3cc(S(=O)(=O)Nc4ncns4)ccc32)cn1 [Example 201, (S)-4-((2S,4R)-2-(1-methyl-1H-pyrazol-4-yl)-4-(trifluoromethyl)piperidin-1-yl)-N-(1,2,4-thiadiazol-5-yl)chroman-7-sulfonamide]",0.0037 µM
20,"O=S(=O)(Nc1ncns1)c1ccc2c(c1)OCC[C@H]2N1CCC(F)(F)C[C@@H]1c1ccc(F)cc1 (single isomer, unassigned) [Example 132]",0.0757 µM
21,"O=S(=O)(Nc1ncns1)c1ccc2c(c1)CCC[C@H]2N1CCCC[C@@H]1c1ccccc1 (single isomer, unassigned) [Example 55]",0.286 µM
22,"O=S(=O)(Nc1ncns1)c1ccc2c(c1)CCC[C@H]2N1CCCC[C@H]1c1ccccc1 (single isomer, unassigned) [Example 53, trifluoroacetic acid salt]",0.271 µM
23,"O=S(=O)(Nc1ncns1)c1ccc2c(c1)OCC[C@H]2N1CC[C@@H](C(F)F)C[C@H]1c1ccc(F)cc1 [Example 185, (R)-4-((2S,4R)-4-(difluoromethyl)-2-(4-fluorophenyl)piperidin-1-yl)-N-(1,2,4-thiadiazol-5-yl)chroman-7-sulfonamide]",2.18 µM
24,"O=S(=O)(Nc1ncns1)c1cc(Cl)c(CN2CCCCC2c2ccncc2)cc1F (centres unmarked) [Example 69, 5-chloro-2-fluoro-4-((2-(pyridin-4-yl)piperidin-1-yl)methyl)-N-(1,2,4-thiadiazol-5-yl)benzenesulfonamide]",0.21 µM
25,"Cn1nccc1[C@@H]1C[C@H](C(F)(F)F)CCN1[C@H]1CCOc2cc(S(=O)(=O)Nc3ncns3)ccc21 (single isomer, unassigned) [Example 123]",0.000616 µM
26,"O=S(=O)(Nc1ncns1)c1ccc2c(c1)OCC[C@H]2N1CCCC[C@H]1c1ccccc1 (single isomer, unassigned) [Example 38]",0.203 µM
27,"CC(C)(C)OC(=O)N1CCN([C@H]2CCOc3cc(S(=O)(=O)Nc4ncns4)ccc32)[C@H](c2ccc(F)cc2)C1 [Example 217, tert-butyl (R)-4-((S)-7-(N-(1,2,4-thiadiazol-5-yl)sulfamoyl)chroman-4-yl)-3-(4-fluorophenyl)piperazine-1-carboxylate]",0.0183 µM
28,"O=S(=O)(Nc1ncns1)c1ccc2c(c1)OCC[C@H]2N1CCCC[C@@H]1c1ccc(F)cc1 (single isomer, unassigned) [Example 79]",0.0186 µM
29,"O=S(=O)(Nc1ncns1)c1cc(F)c(CN2CC[C@@H](F)C[C@H]2c2ccccc2)cc1F (single isomer, unassigned) [Example 28]",5.98 µM
